From the supplement of paper PMC10331698
± gives the standard deviation of the averaged measurements.

Tests used:
Experiment in all cases: level (log10 ratio to DMSO vehicle control); higher = higher biomarker level / cell amount than vehicle control
Perfluoropropanoic acid = compound: O=C(O)C(F)(F)C(F)(F)F [Perfluoropropanoic acid]; details: in DMSO
Procedure: (§1)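 BioMAP Diversity Plus panel of 12 human primary cell co-culture systems (3C, 4H, LPS, SAg, BT, BF4T, BE3C, CASM3C, HDF3CGF, KF3CT, MyoF, Mphg). Compounds were added 1 h before stimulation and left for 24 h (MyoF 48 h; BT 72 h for soluble read-outs or 6 d for IgG). Biomarkers were read by ELISA, cytotoxicity by SRB, PBMC viability and proliferation by Alamar Blue. Each well value was divided by the mean of 8 DMSO control wells on the same plate and log10 transformed; duplicate blinded samples were tested at 4 concentrations.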

[1] = compound: CCN(CCO)S(=O)(=O)C(F)(F)C(F)(F)C(F)(F)C(F)(F)C(F)(F)C(F)(F)C(F)(F)C(F)(F)F [N-Ethyl-N-(2-hydroxyethyl)perfluorooctanesulfonamide]; details: in DMSO
Procedure: as §1

Heptafluorobutyramide = compound: NC(=O)C(F)(F)C(F)(F)C(F)(F)F [Heptafluorobutyramide]; details: in DMSO
Procedure: as §1

[2] = compound: FC(F)C(F)(F)COCC1CO1 [((2,2,3,3-Tetrafluoropropoxy)methyl)oxirane]; details: in DMSO
Procedure: as §1

Perfluorodecanoic acid = compound: O=C(O)C(F)(F)C(F)(F)C(F)(F)C(F)(F)C(F)(F)C(F)(F)C(F)(F)C(F)(F)C(F)(F)F [Perfluorodecanoic acid]; details: in DMSO
Procedure: as §1

[3] = compound: OCCCC(F)(F)C(F)(F)C(F)(F)C(F)(F)C(F)(F)C(F)(F)C(F)(F)F [7:3 Fluorotelomer alcohol]; details: 6700 nM; in DMSO
Procedure: as §1

[4] = compound: C=CC(=O)OCC(F)(F)C(F)(F)C(F)(F)C(F)(F)C(F)(F)C(F)(F)C(F)(F)F [1H,1H-Perfluorooctyl acrylate]; details: in DMSO
Procedure: as §1

Test System	level (log10) (Perfluoropropanoic acid; 6700 nM)	level (log10) (Perfluoropropanoic acid; 20000 nM)	level (log10) (Perfluoropropanoic acid; 60000 nM)	level (log10) ([1]; 6700 nM)	level (log10) ([1]; 20000 nM)	level (log10) (Heptafluorobutyramide; 6700 nM)	level (log10) (Heptafluorobutyramide; 20000 nM)	level (log10) (Heptafluorobutyramide; 60000 nM)	level (log10) ([2]; 6700 nM)	level (log10) ([2]; 20000 nM)	level (log10) ([2]; 60000 nM)	level (log10) (Perfluorodecanoic acid; 6700 nM)	level (log10) (Perfluorodecanoic acid; 20000 nM)	level (log10) [3]	level (log10) ([4]; 6700 nM)	level (log10) ([4]; 20000 nM)	level (log10) ([4]; 60000 nM)
LPS:sTNF-alpha	-0.006 ± 0.013	0.0065 ± 0.00071	0.0175 ± 0.0021	-0.006 ± 0.0028	-0.005 ± 0.0085	0.012 ± 0.017	0.013 ± 0.011	0.001 ± 0.023	0.0135 ± 0.0021	0.015 ± 0.013	0.0175 ± 0.0021	-0.0245 ± 0.011	-0.02 ± 0.017	-0.081 ± 0.05	0.0115 ± 0.00071	0.0285 ± 0.011	0.021 ± 0.013
LPS:CD106/VCAM-1	-0.0105 ± 0.018	-0.008 ± 0.02	-0.0055 ± 0.022	-0.0195 ± 0.023	-0.0395 ± 0.012	0.0005 ± 0.005	-0.0005 ± 0.012	-0.0145 ± 0.029	0.0015 ± 0.036	-0.024 ± 0.0071	-0.032 ± 0.042	0.0015 ± 0.0035	-0.001 ± 0.0014	-0.031 ± 0.0085	-0.0045 ± 0.011	-0.0165 ± 0.0021	-0.0145 ± 0.0078
BE3C:CXCL8/IL-8	-0.0355 ± 0.083	0.001 ± 0.083	0.0605 ± 0.13	-0.0825 ± 0.013	-0.218 ± 0.056	0.038 ± 0.0014	0.0365 ± 0.012	0.038 ± 0.051	0.0015 ± 0.00071	-0.005 ± 0.025	-0.009 ± 0.021	-0.0545 ± 0.069	-0.577 ± 0.023	0.006 ± 0.0028	0.0375 ± 0.012	0.066	0.071 ± 0.042
BT:sIL-2	0.046 ± 0.016	-0.0205 ± 0.064	-0.007 ± 0.1	-0.046 ± 0.03	-0.339 ± 0.076	0.068 ± 0.017	-0.041 ± 0.059	0.0165 ± 0.0092	0.084 ± 0.067	-0.005 ± 0.067	0.017 ± 0.13	0.008 ± 0.092	0.118 ± 0.013	-0.037 ± 0.15	-0.0455 ± 0.11	0.031 ± 0.028	-0.0025 ± 0.042
BE3C:CXCL9/MIG	-0.0005 ± 0.016	0.0035 ± 0.0078	0.0165 ± 0.023	-0.006 ± 0.0028	-0.0285 ± 0.0035	0.002 ± 0.0014	0.0015 ± 0.0092	-0.006 ± 0.0028	0 ± 0.0042	-0.0115 ± 0.0092	0.003 ± 0.02	-0.003 ± 0.0042	-0.715 ± 0.9	-0.0015 ± 0.0021	-0.002 ± 0.0085	0.0035 ± 0.016	0.0015 ± 0.0078
BF4T:CXCL8/IL-8	0.043 ± 0.037	0.033 ± 0.035	0.046 ± 0.052	-0.015 ± 0.014	-0.004 ± 0.0014	0.032 ± 0.061	0.024 ± 0.057	0.0155 ± 0.012	0.0165 ± 0.013	0.003 ± 0.0042	0.0255 ± 0.021	0.0395 ± 0.012	-0.293 ± 0.076	0.0165 ± 0.029	0.0275 ± 0.0092	0.01 ± 0.0057	0.0465 ± 0.0092
4H:CD62P/P-selectin	-0.0215 ± 0.0021	-0.012 ± 0.0042	0.0105 ± 0.026	-0.079 ± 0.0014	-0.142 ± 0.044	0.002 ± 0.0099	0.049 ± 0.034	0.015 ± 0.02	0.0275 ± 0.043	-0.0285 ± 0.087	-0.051 ± 0.071	0.087 ± 0.0071	0.093 ± 0.033	0.04 ± 0.027	0.038 ± 0.05	-0.0155 ± 0.018	-0.047 ± 0.023
SAg:Proliferation	-0.0205 ± 0.043	-0.0085 ± 0.019	-0.0025 ± 0.07	-0.098 ± 0.0057	-0.335 ± 0.098	-0.0035 ± 0.03	-0.0055 ± 0.00071	-0.0265 ± 0.011	-0.0075 ± 0.019	-0.02 ± 0.03	-0.0095 ± 0.0092	0.0435 ± 0.019	0.0255 ± 0.032	-0.0205 ± 0.052	0.004 ± 0.0042	-0.045 ± 0.047	-0.128 ± 0.038
BT:B cell Proliferation	0.0125 ± 0.044	-0.041 ± 0.0085	-0.002 ± 0.051	0.0165 ± 0.005	-0.0405 ± 0.059	0.0055 ± 0.018	-0.02 ± 0.025	-0.003 ± 0.03	-0.021 ± 0.02	-0.014 ± 0.0042	0.0105 ± 0.0092	0.0135 ± 0.04	0.0395 ± 0.03	-0.011 ± 0.0042	-0.0405 ± 0.05	-0.0195 ± 0.056	-0.052 ± 0.048
